Source: US8211885B2, “Cyclic indole-3-carboxamides, their preparation and their use as pharmaceuticals” (Sanofi-Aventis, priority 2008, dated 2012)

target: T1, Recombinant human renin (Homo sapiens, UniProt P00797); assay: Inhibition of renin (fluorogenic peptide substrate); type: biochemical; conditions: not given
T1 construct: purchased Cayman 10006217
T1 sequence (P00797 67-406): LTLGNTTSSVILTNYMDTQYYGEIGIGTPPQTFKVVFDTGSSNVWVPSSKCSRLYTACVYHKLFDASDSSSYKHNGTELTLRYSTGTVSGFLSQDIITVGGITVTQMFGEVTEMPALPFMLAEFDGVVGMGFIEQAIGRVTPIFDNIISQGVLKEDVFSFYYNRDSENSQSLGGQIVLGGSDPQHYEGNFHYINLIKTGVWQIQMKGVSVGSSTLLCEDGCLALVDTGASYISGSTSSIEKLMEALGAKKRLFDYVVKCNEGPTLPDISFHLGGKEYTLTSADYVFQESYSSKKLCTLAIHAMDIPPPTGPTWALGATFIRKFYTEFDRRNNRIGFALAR
Procedure: Recombinant human renin (Cayman, no. 10006217) at a concentration of 5 nM was incubated with the test compounds at various concentrations and the synthetic substrate Dabcyl-γ-Abu-[…]EDANS (Bachem, no. M-2050; Dabcyl means the 4-(4-dimethylamino-phenylazo)-benzoyl group and EDANS means the amide with 5-[(2-aminoethyl)amino]-naphthalene-1-sulfonic acid) at a concentration of 10 μM for 2 h at room temperature in 0.05 M Tris buffer (pH 8) containing 0.1 M NaCl, 2.5 mM EDTA and 1.25 mg/ml bovine serum albumin. The increase in fluorescence, which is due to fluorescence resonance energy transfer, was recorded at an excitation wavelength of 330 nm and an emission wavelength of 485 nm in a microplate spectrofluorometer. Inhibitory concentrations IC50 were calculated from the percentage of inhibition of renin activity as a function of the concentration of the test compound.

SMILES | IC50 [nM]
CN(c1ccccc1)c1c(C(=O)N2CCNCC2)c2ccccc2n1-c1ccccc1 [Example 3, [2-(Methyl-phenyl-amino)-1-phenyl-1H-indol-3-yl]-piperazin-1-yl-methanone] | 3200

same assay, conditions: renin 5 nM, substrate Dabcyl-γ-Abu-[…]-EDANS 10 μM, 2 h room temperature, Tris buffer pH 8; compounds tested as the obtained salt; read-out: IC50 values for inhibition of renin (fluorogenic peptide substrate)

SMILES | IC50 [nM]
Cc1ccc(F)cc1Oc1c(C(=O)N2CCNCC2)c2ccc(OCC(=O)O)cc2n1-c1ccccc1 [Example 30, [2-(5-Fluoro-2-methyl-phenoxy)-1-phenyl-3-(piperazine-1-carbonyl)-1H-indol-6-yloxy]-acetic acid] | 130
O=C(c1c(Oc2ccccc2)n(-c2ccccc2)c2ccccc12)N1CCNCC1Cc1ccccc1 (centres unmarked) [Example 126] | 4500
O=C(c1c(Oc2ccccc2)n(-c2ccccc2)c2ccccc12)N1CCNC(CO)C1 (centres unmarked) [Example 24, (3-Hydroxymethyl-piperazin-1-yl)-(2-phenoxy-1-phenyl-1H-indol-3-yl)-methanone] | 1600
Cc1ccccc1Sc1c(C(=O)N2CCNCC2)c2ccccc2n1-c1ccccc1 [Example 108] | 71
O=C(c1c(Oc2ccccc2)n(-c2ccccc2)c2ccccc12)N1CCCNCC1 [Example 5, Perhydro-1,4-diazepin-1-yl-(2-phenoxy-1-phenyl-1H-indol-3-yl)-methanone] | 3400
Cc1ccccc1Cc1c(C(=O)N2CCNCC2)c2ccccc2n1-c1ccsc1 [Example 113] | 230
Cc1ccc(F)cc1Oc1c(C(=O)N2CCNCC2)c2ccccc2n1C1C=CCCC1 (centres unmarked) [Example 22, [1-Cyclohex-2-enyl-2-(5-fluoro-2-methyl-phenoxy)-1H-indol-3-yl]-piperazin-1-yl-methanone] | 7.2
